This note sets out measurements from patent US20040006236A1, “Diaminopropionic acid derivatives” (priority 1999, published 2004).

pIC50: −log10 of the molar value.

Assay [1] concerns the target T1, LFA-1 binding to immobilized ICAM-1 (Homo sapiens, UniProt P05107+P20701).
T1 construct: made in house; host or cells: transfected 293 cells (LFA-1)
Description: LFA-1/ICAM-1 protein-protein assay (solid-phase ELISA). Conditions: read-out: LFA-1/ICAM-1 Protein-Protein Assay IC50. In short, it runs like this: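 Human 5dICAM-Ig (ICAM-1 extracellular domain–IgG Fc) coated on plates; membrane-bound LFA-1 from transfected 293 cells (280 ng/mL) added with compound in Mn2+-containing HEPES buffer pH 7.2, 2 h at 37° C. Bound LFA-1 detected via anti-β2 antibody and HRP/TMB at 450 nm; IC50s determined.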

The test system of assay [2] is T lymphocyte proliferation (C57BI/6 spleen cells with irradiated BALB/c spleen cells). The experiment in a line: Mixed lymphocyte reaction (MLR), one-way. It counts as cell-based, mice. Conditions: Mus musculus, T-lymphocyte; read-out: MLR IC50. An excerpt:
Admixture of murine spleen cells from two different inbred strains of mice induces proliferation of T lymphocytes. The magnitude of T cell proliferation depends on the extent of disparity in the major histocompatibility antigens between the two strains. Splenic T lymphocytes from both strains proliferate due to alloantigen recognition, a process for which the interaction of ICAM-1 on antigen-presenting cells with LFA-1 on lymphocytes is necessary. The ability of antagonists to inhibit T lymphocyte proliferation following recognition of alloantigens was assessed in a one-way MLR, where cells from one strain were irradiated to permit measurement of the proliferative response of cells from the other strain. Spleen cells were washed three times in tissue culture medium (TCM; see below). […] One hundred microliters of serial dilutions of antagonists or TCM were added to the spleen cell mixture. The total volume in each well was 200 μL. TCM was RPMI1640 containing 10% heat-inactivated fetal bovine serum, […] L-glutamine, 100 Units/ml each of penicillin and streptomycin and 5×10^−5 M 2-mercaptoethanol. Dilutions of antagonists were prepared in TCM. Plates were incubated in 5% CO2 for 3 days. On the third day, 0.5 μCi of tritiated thymidine (10 μCi/mL) was added to all the wells. Cells were harvested 6 h later on a 96-well plate harvester and the amount of tritiated thymidine incorporated was assessed in a liquid scintillation counter.

The subject of assay [3] is Mac-1 and LFA-1-mediated neutrophil binding to immobilized ICAM-1. The experiment in a line: Neutrophil (Mac-1 and LFA-1)/ICAM-1 cell-based screening assay. The note with it: human neutrophils. Here is the method:
Both Mac-1 and LFA-1 are expressed on the cell surface of neutrophils. The ability of antagonists to inhibit Mac-1 and LFA-1-mediated neutrophil binding to immobilized ICAM-1 was quantitated by a cell based assay. Typically, fusion protein consisting of the entire extracellular domain of human ICAM-1 and the Fc domain of human IgG (5dICAM-Ig) was coated onto 96 well microtiter plates (1 μg in 100 μL TBS) overnight at 4° C. The plates were then blocked with 150 μL of 10% PVP in TBS for 1 h at 37° C. Plates were washed 3 times (150 μL each) with TBS. Human neutrophils were purified from whole blood from healthy volunteers using LSM (ICN). Cells (8×10^6/mL) were fluorescently labeled with 6-carboxyfluorescein (100 μg/mL) for 40 min in IMDM/1 mM MgCl2/1.2 mM CaCl2 as described in Example 287. Cells (8×10^6/mL) were stimulated with f-Met-Leu-Phe (10 μM) for 5 min at room temperature just prior to being used in the assay, and diluted to 2×10^6 cells/mL with RPMI/0.05% BSA/0.2 mM MnCl2. Stock solutions (10 mM) of test compounds were diluted to 2.5 mM with DMSO. A series of 1:4 dilutions in DMSO were performed to achieve a concentration range of 38.2 nM-2.5 mM. Each sample was further diluted 50-fold with RPMI/0.05% BSA/0.2 mM MnCl2. Equal volumes of labeled cells were then added to assay tubes containing diluted compound. Final concentrations of compound tested in the assay ranged from 0.38 nM-25 μM with a cell concentration of 1×10^6 per mL. Cells were incubated for 10 min at 37° C. with gentle shaking, then dispensed (100 μL per well) onto ICAM-1 coated plates and incubated for 30 min at 37° C./5% CO2. Unbound cells were washed and plates were read on a Cytofluor™ 2300 (Millipore) as described in Example 384.

Assay [4] has as its system cell-surface Mac-1 adhesion to immobilized fibrinogen (HL-60 cells). Description: Mac-1/Fibrinogen cell-based screening assay. The note with it: Homo sapiens, HL-60, HL-60 cells; read-out: Mac-1/Fgn Cell based Assay IC50. Also on record: species or system human. Here is the method: Cellular Mac-1/Fibrinogen antagonist activity, defined as the ability to inhibit cell-surface Mac-1 adhesion to immobilized fibrinogen, was quantitated by a cell based assay. Human fibrinogen was coated onto 96 well microtiter plates (1 μg in 100 μL TBS) overnight at 4° C. The plates were then blocked with 150 μL of 10% polyvinyl pyrrolidone (PVP) in TBS for 1 h at 37° C. Plates were washed 3 times (150 μL each) with TBS. […] A ten-fold excess of volume of the same buffer was added and cells were centrifuged. The medium was decanted and cells were resuspended at a concentration of 2×10^6 cells/mL in RPMI/0.05% BSA/0.2 mM MnCl2. Stock solutions (10 mM in DMSO) of test compounds were diluted to 2.5 mM with DMSO. […] Each sample was further diluted 50-fold with RPMI/0.05% BSA/0.2 mM MnCl2. Equal volumes of labeled cells were then added to assay tubes containing diluted compounds. […] Cells were incubated for 10 min at 37° C. with gentle shaking, then dispensed (100 μL per well) onto fibrinogen coated plates and incubated for 30 min at 37° C./5% CO2. Unbound cells were gently washed with TBS two times.

T1 sequence (P20701 26-1170): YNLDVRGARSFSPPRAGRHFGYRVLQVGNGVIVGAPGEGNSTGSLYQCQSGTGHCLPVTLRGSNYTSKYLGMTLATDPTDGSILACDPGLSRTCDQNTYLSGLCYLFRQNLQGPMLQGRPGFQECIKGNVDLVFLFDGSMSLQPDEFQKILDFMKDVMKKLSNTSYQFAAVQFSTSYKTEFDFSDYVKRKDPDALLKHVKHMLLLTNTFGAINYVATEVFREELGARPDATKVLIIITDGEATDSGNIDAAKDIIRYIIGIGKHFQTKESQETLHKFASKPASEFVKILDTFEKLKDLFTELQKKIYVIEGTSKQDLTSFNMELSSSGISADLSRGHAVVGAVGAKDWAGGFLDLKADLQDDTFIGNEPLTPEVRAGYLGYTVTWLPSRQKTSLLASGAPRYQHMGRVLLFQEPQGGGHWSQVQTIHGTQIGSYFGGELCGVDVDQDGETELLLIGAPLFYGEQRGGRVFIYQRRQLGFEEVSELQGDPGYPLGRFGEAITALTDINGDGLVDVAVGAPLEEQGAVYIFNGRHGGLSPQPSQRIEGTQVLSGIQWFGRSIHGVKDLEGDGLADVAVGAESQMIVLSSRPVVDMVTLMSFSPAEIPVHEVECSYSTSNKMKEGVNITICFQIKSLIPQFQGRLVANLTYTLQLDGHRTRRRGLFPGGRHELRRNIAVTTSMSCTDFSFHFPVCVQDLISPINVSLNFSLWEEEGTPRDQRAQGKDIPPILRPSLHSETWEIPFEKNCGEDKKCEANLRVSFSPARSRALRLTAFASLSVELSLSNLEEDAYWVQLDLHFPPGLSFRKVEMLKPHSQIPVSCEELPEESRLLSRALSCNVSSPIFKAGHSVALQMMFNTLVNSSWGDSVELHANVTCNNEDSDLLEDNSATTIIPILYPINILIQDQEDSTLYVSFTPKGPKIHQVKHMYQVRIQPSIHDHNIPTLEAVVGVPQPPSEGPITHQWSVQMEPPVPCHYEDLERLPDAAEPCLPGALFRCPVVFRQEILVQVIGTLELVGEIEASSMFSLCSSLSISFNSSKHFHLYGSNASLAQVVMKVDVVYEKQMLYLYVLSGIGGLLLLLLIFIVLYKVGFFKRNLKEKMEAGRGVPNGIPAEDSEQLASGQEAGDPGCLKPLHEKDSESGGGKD
T1 sequence (P05107 23-769): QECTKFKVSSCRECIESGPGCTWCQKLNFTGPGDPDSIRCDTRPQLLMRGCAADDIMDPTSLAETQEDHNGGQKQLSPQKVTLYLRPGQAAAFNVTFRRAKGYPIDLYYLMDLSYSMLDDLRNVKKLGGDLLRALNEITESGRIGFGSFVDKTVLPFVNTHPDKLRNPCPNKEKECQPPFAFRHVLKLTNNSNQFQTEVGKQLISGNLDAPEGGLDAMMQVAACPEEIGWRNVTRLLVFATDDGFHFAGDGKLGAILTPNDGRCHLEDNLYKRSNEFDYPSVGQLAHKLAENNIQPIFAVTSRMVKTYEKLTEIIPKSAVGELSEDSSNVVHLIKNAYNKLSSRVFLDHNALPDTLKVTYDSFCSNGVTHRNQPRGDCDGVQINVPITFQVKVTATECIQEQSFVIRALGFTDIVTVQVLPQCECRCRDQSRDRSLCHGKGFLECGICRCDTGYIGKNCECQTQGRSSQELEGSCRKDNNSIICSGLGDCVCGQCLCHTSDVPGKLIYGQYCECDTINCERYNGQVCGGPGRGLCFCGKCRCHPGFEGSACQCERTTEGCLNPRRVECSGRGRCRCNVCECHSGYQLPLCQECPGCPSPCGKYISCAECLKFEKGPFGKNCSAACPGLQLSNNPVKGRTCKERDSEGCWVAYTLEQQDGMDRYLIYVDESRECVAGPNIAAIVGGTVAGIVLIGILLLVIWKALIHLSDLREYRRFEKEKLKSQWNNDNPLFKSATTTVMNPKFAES

For `Cc1cc(C(=O)NCc2cccc(O)c2)cc(Cl)c1C(=O)N[C@@H](CNC(=O)c1cc(O)cc(O)c1)C(=O)O` [Example 341, N-[2-chloro-4-[[[(3-hydroxyphenyl)methyl]amino]carbonyl]-6-methylbenzoyl]-3-(3,5-dihydroxybenzoylamino)-L-alanine], the pIC50 in assay [1] is 9.52; in assay [2], 8.52; in assay [3] it was 9.52.

On to `Cc1cccc(C(=O)NC[C@H](NC(=O)c2c(Cl)cc(C(=O)NCc3cccc(O)c3)cc2Cl)C(=O)O)c1` [Example 352], for which the figures for the pIC50 in assay [1], in assay [2] and in assay [4] were 8.92, 7.04 and 7.55, respectively.

Turning to `O=C(NCc1cccc(O)c1)c1cc(Cl)c(C(=O)N[C@@H](CNC(=O)c2sccc2Cl)C(=O)O)c(Cl)c1` [Example 355], the values for the pIC50 in assay [1], in assay [2] and in assay [4] were 9.05, 7.07 and 7.75, respectively.

In the case of `O=C(NCc1cccc(O)c1)c1cc(Cl)c(C(=O)N[C@@H](CNC(=O)c2cc(Br)c(Br)s2)C(=O)O)c(Cl)c1` [Example 356], the results for the pIC50 in assay [1], in assay [2] and in assay [4] were 8.47, 5.75 and 7.09, respectively.

Consider `Cc1ccsc1C(=O)NC[C@H](NC(=O)c1c(Cl)cc(C(=O)NCc2cccc(O)c2)cc1Cl)C(=O)O` [Example 357], for which the values for the pIC50 in assay [1], in assay [2] and in assay [4] were 9.30, 7.68 and 7.64, respectively.
